Measurements taken from patent US20250109151A1, “SILYL-LIPID N-ACYL L-HOMOSERINE LACTONES AS QUORUM SENSING MOLECULES” (The Regents of the University of California, priority 2022, published 2025).

Experiments:
[1] = molecular target: T1, LasR (Pseudomonas aeruginosa, UniProt P25084); assay: cell-based; conditions: for Emax: read-out: Maximum Activation (%); for designation of the sample in the LasR agonism table: words in brackets after the sample code
T1 construct: expressed in transfected cells; host or cells: E. coli (reporter strain)
T1 sequence (P25084 whole entry): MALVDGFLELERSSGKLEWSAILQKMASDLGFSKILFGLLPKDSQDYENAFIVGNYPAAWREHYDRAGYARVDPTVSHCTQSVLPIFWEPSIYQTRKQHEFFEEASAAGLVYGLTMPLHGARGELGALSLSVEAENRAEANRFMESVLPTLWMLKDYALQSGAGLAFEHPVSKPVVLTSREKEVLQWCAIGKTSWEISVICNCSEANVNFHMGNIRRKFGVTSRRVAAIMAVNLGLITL
Experimental: 15 compounds were assayed for LasR agonism using a beta-glo reporter assay in E. coli.

[2] = molecular target: T1, LasR; assay: LasR antagonism assay; type: cell-based; conditions: for Emax: read-out: Maximum Activation (%)
Experimental: 3 compounds were assayed for LasR antagonism.
The IC50, […], and Max Activation for each sample is reported below.

[3] = cited from earlier work
[4] = tested on: TNF-α release; conditions: LPS-induced model, at 30 min; cited from earlier work

## CCCC[Si](C)(C)CCCCC(=O)N[C@H]1CCOC1=O [LSD 1-34, (S)-5-(butyldimethylsilyl)-N-(2-oxotetrahydrofuran-3-yl)pentanamide]
[1]
  Emax: 101%

## CCCCCCCC[Si](C)(C)CCCCCCC(=O)N[C@H]1CCOC1=O [LSD 1-59, (S)-7-(dimethyl(octyl)silyl)-N-(2-oxotetrahydrofuran-3-yl)heptanamide]
[1]
  Emax: 25%
  designation of the sample in the LasR agonism table: LSD 1-59 (inactive)

## CCCC[Si](C)(C)c1ccc(CC(=O)N[C@H]2CCOC2=O)cc1 [LSD 137, (S)-2-(4-(butyldimethylsilyl)phenyl)-N-(2-oxotetrahydrofuran-3-yl)acetamide]
[1]
  Emax: 14.1%
  designation of the sample in the LasR agonism table: LSD 137 (antagonist)
[2]
  IC50: 9.3 µM
  Emax: 101%

## C[Si](C)(C)O[Si](C)(C)CCCCC(=O)N[C@H]1CCOC1=O [LSD 2-120, (S)-N-(2-oxotetrahydrofuran-3-yl)-5-(1,1,3,3,3-pentamethyldisiloxaneyl)pentanamide]
[1]
  Emax: 94%

## CCCC[Si](C)(C)CCCCCCC(=O)N[C@H]1CCOC1=O [LSD 1-35, (S)-7-(butyldimethylsilyl)-N-(2-oxotetrahydrofuran-3-yl)heptanamide]
[1]
  Emax: 90.4%

## C[Si](C)(c1ccccc1)c1ccc(CC(=O)N[C@H]2CCOC2=O)cc1 [LSD 133, (S)-2-(4-(dimethyl(phenyl)silyl)phenyl)-N-(2-oxotetrahydrofuran-3-yl)acetamide]
[1]
  EC50: 0.015 µM
  Emax: 9%
  designation of the sample in the LasR agonism table: LSD 133 (antagonist)
[2]
  IC50: 14.6 µM
  Emax: 97.2%

## C[Si](C)(CCCCC(=O)CC(=O)N[C@H]1CCOC1=O)c1ccccc1 [LSD 2-113, (S)-7-(dimethyl(phenyl)silyl)-3-oxo-N-(2-oxotetrahydrofuran-3-yl)heptanamide]
[1]
  Emax: 106%

## O=C(O)[C@@H]1CCCN1C(=O)OCC1c2ccccc2-c2ccccc21 [Fmoc-Pro]
[3]
  Log P: 0.094

## CC[Si](CC)(CC)CCCCC(=O)N[C@H]1CCOC1=O [KMM 5-56-2, (S)-N-(2-oxotetrahydrofuran-3-yl)-5-(triethylsilyl)pentanamide]
[1]
  Emax: 94.3%

## C[Si](C)(CCCCCCC(=O)N[C@H]1CCOC1=O)c1ccccc1 [LSD 2-47, (S)-7-(dimethyl(phenyl)silyl)-N-(2-oxotetrahydrofuran-3-yl)heptanamide]
[1]
  Emax: 99.7%

## CC[Si](CC)(CC)CCCCC(=O)CC(=O)N[C@H]1CCOC1=O [LSD-92, (S)-3-oxo-N-(2-oxotetrahydrofuran-3-yl)-7-(triethylsilyl)heptanamide]
[1]
  Emax: 86%

## CCCCCCCC[Si](C)(C)CCCCC(=O)N[C@H]1CCOC1=O [KMM 5-55-2, (S)-5-(dimethyl(octyl)silyl)-N-(2-oxotetrahydrofuran-3-yl)pentanamide]
[1]
  Emax: 101%

## Cc1ccc(-n2nc(C(C)(C)C)cc2NC(=O)Nc2ccc(OCCN3CCOCC3)c3ccccc23)cc1 [BIRB-796]
[4]
  TNF-α suppression: 41%

## CCCC[Si](CCCC)(CCCC)CCCCC(=O)N[C@H]1CCOC1=O [LSD 2-65, (S)-N-(2-oxotetrahydrofuran-3-yl)-5-(tributylsilyl)pentanamide]
[1]
  Emax: 79.8%

## C[Si]1(C)CC(C(=O)O)N(C(=O)OCC2c3ccccc3-c3ccccc32)C1 (stereo not drawn) [Fmoc-Sip]
[3]
  Log P: 1.3

## C[Si](C)(CCCCC(=O)N[C@H]1CCOC1=O)c1ccccc1 [LSD 1-32, (S)-5-(dimethyl(phenyl)silyl)-N-(2-oxotetrahydrofuran-3-yl)pentanamide]
[1]
  Emax: 96.1%
